pIC50: −log10 of the molar value.
What follows are compounds tested against T1, maize enzyme cytokinin oxidase/dehydrogenase 1 (ZmCKX1) (Zea mays, UniProt Q9T0N8) (assay: ZmCKX1 inhibition, PMS/MTT assay). Settings: not given.
T1 construct: made in house; host or cells: Yarrowia lipolytica
Type: biochemical
Method: The IC50 (concentration of a substance that causes 50% inhibition of the enzyme activity) was measured by PMS/MTT assay [phenazine methosulphate/3-(4,5-dimethylthiazol-2-yl)-2,5-diphenyltetrazolium bromide]. The assay was performed in 96-well microtiter plates. Each well contained a reaction mixture with a final concentration of: 0.1 M KH2PO4, pH 7.4, 1 mM MTT, 0.2 mM PMS, tested substance in a concentration range of 0.1 nM - 1 µM and 10 µM N^6-isopentenyladenine (iP) as a substrate. To this reaction mixture 100 µL of medium containing the active enzyme ZmCKX1 was added. The enzyme was produced by the yeast Yarrowia lipolytica and isolated according to the protocol (Kopečný D. et al., 2005, […] 87:1011-1022). The plates were incubated for 30 min at 37 °C and the enzymatic reaction was stopped by the addition of 25 µL of 35% acetic acid. Then, the absorbance at 578 nm was measured on a spectrophotometer, and the absorbance of the sample without the substrate was substracted as a reference value. The IC50 value was determined from the concentration-dependent curves in GraphPad Prism software. The values shown in Table 1 are the average of at least two measurements each performed in three repetitions. […] This also applies to 3,5-DCl-Ph-U derivatives.

T1 sequence (Q9T0N8 19-534): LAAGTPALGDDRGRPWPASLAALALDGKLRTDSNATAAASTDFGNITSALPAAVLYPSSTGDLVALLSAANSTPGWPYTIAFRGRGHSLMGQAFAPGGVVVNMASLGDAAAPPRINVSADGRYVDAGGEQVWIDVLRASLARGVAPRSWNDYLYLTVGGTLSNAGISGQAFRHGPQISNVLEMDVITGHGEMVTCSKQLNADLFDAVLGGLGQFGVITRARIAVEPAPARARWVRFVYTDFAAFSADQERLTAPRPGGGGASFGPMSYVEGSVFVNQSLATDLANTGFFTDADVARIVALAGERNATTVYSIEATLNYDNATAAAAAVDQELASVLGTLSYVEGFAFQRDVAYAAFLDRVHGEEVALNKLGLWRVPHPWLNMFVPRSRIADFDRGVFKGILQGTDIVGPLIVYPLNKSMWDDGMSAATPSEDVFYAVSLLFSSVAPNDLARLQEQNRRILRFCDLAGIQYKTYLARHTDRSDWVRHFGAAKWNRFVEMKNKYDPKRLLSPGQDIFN

| SMILES | pIC50 |
| --- | --- |
| O=C(Nc1cc(F)cc(Br)c1)Nc1ccccc1CCO [Compound 47, 1-(3-bromo-5-fluorophenyl)-3-[2-(2-hydroxyethyl)phenyl]urea] | 6.77 |
| COc1cc(Br)cc(NC(=O)Nc2ccccc2CCO)c1 [Compound 56, 1-(3-bromo-5-methoxyphenyl)-3-[2-(2-hydroxyethyl)phenyl]urea] | 6.85 |

Same assay, conditions: 10 µM N6-isopentenyladenine (iP) as substrate, pH 7.4, 30 min at 37 °C; average of at least two measurements; read-out: IC50 (µM) ZmCKX1

| SMILES | IC50 [µM] |
| --- | --- |
| O=C(Nc1ccnc(F)c1)Nc1ccccc1CO [Compound 1, 1-(2-fluoropyridin-4-yl)-3-(2-hydroxymethylphenyl)urea] | 2.5 |
| O=C(Nc1cc(F)nc(F)c1)Nc1ccccc1CO [Compound 3, 1-(2,6-difluoropyridin-4-yl)-3-(2-hydroxymethylphenyl)urea] | 0.82 |
| O=C(Nc1ccnc(Cl)c1)Nc1ccccc1CO [Compound 4, 1-(2-chloropyridin-4-yl)-3-(2-hydroxymethylphenyl)urea] | 1.6 |
| O=C(Nc1cc(Cl)nc(Cl)c1)Nc1ccccc1CO [Compound 5, 1-(2,6-dichloropyridin-4-yl)-3-(2-hydroxymethylphenyl)urea] | 0.7 |
| COc1cc(NC(=O)Nc2ccccc2CO)ccn1 [Compound 7, 1-(2-methoxypyridin-4-yl)-3-(2-hydroxymethylphenyl)urea] | 1.1 |
| O=C(Nc1ccnc(F)c1)Nc1ccccc1CCO [Compound 9, 1-(2-fluoropyridin-4-yl)-3-[2-(2-hydroxyethyl)phenyl]urea] | 1.6 |
| O=C(Nc1cc(F)nc(F)c1)Nc1ccccc1CCO [Compound 10, 1-(2,6-difluoropyridin-4-yl)-3-[2-(2-hydroxyethyl)phenyl]urea] | 0.72 |
| O=C(Nc1ccnc(Cl)c1)Nc1ccccc1CCO [Compound 12, 1-(2-Chloropyridin-4-yl)-3-[2-(2-hydroxyethyl)phenyl]urea] | 1.3 |
| O=C(Nc1cc(Cl)nc(Cl)c1)Nc1ccccc1CCO [Compound 13, 1-(2,6-Dichloropyridin-4-yl)-3-[2-(2-hydroxyethyl)phenyl]urea] | 0.43 |
| COc1cc(NC(=O)Nc2cc(F)ccc2CCO)ccn1 [Compound 15, 1-[5-fluoro-2-(2-hydroxyethyl)phenyl]-3-(2-methoxypyridin-4-yl)urea] | 0.15 |
| O=C(Nc1cc(F)cc(F)c1)Nc1ccccc1CO [Compound 17, 1-(3,5-difluorophenyl)-3-(2-hydroxymethylphenyl)urea] | 0.65 |
| O=C(Nc1cc(Cl)cc(Cl)c1)Nc1ccccc1CO [Compound 18, 1-(3,5-Dichlorophenyl)-3-(2-hydroxymethylphenyl)urea] | 0.4 |
| O=C(Nc1cc(Br)cc(Br)c1)Nc1ccccc1CO [Compound 19, 1-(3,5-dibromophenyl)-3-(2-hydroxymethylphenyl)urea] | 0.33 |
| O=C(Nc1cc(Cl)cc(Cl)c1)Nc1cccc(Cl)c1CO [Compound 20, 1-(3-Chloro-2-hydroxymethylphenyl)-3-(3,5-dichlorophenyl)urea] | 0.27 |
| COc1cc(NCCO)cc(NC(=O)Nc2ccccc2CO)c1 [Compound 23, 1-[3-(2-hydroxyethylamino)-5-methoxyphenyl]-3-(2-hydroxymethylphenyl)urea] | 0.2 |
| COc1cc(NCCN)cc(NC(=O)Nc2ccccc2CO)c1 [Compound 24, 1-[3-(2-aminoethylamino)-5-methoxyphenyl]-3-(2-hydroxymethylphenyl)urea] | 0.18 |
| CSc1cccc(NC(=O)Nc2ccccc2CO)c1 [Compound 26, 1-(2-hydroxymethylphenyl)-3-(3-methylsulphanylphenyl)urea] | 1.5 |
| O=C(Nc1cccc(OC(F)(F)F)c1)Nc1ccccc1CO [Compound 28, 1-(2-Hydroxymethylphenyl)-3-(3-trifluoromethoxyphenyl)urea] | 1.3 |
| O=C(Nc1cccc(OC(F)(F)F)c1)Nc1cccc(F)c1CO [Compound 29, 1-(3-fluoro-2-hydroxymethylphenyl)-3-(3-trifluoromethoxyphenyl)urea] | 0.36 |
| O=C(Nc1cccc(OC(F)(F)F)c1)Nc1cccc(Cl)c1CO [Compound 30, 1-(3-Chloro-2-hydroxymethylphenyl)-3-(3-trifluoromethoxyphenyl)urea] | 0.3 |
| O=C(Nc1cccc(OC(F)(F)F)c1)Nc1cccc(Br)c1CO [Compound 31, 1-(3-bromo-2-hydroxymethylphenyl)-3-(3-trifluoro-methoxyphenyl)urea] | 0.37 |
| O=C(Nc1cc(F)cc(F)c1)Nc1ccccc1CCO [Compound 44, 1-(3,5-difluorophenyl)-3-[2-(2-hydroxyethyl)phenyl]urea] | 0.36 |
| O=C(Nc1cc(Cl)cc(Cl)c1)Nc1ccccc1CCO [Compound 45, 1-(3,5-Dichlorophenyl)-3-[2-(2-hydroxyethyl)phenyl]urea] | 0.18 |
| O=C(Nc1cc(Br)cc(Br)c1)Nc1ccccc1CCO [Compound 46, 1-(3,5-dibromophenyl)-3-[2-(2-hydroxyethyl)phenyl]urea] | 0.14 |
| O=C(Nc1cc(F)cc(Cl)c1)Nc1ccccc1CCO [Compound 48, 1-(3-chloro-5-fluorophenyl)-3-[2-(2-hydroxyethyl)phenyl]urea] | 0.21 |
| COc1cccc(NC(=O)Nc2ccccc2CCO)c1 [Compound 50, 1-[2-(2-hydroxyethyl)phenyl]-3-(3-methoxyphenyl)urea] | 0.27 |
| COc1cc(F)cc(NC(=O)Nc2ccccc2CCO)c1 [Compound 54, 1-(3-fluoro-5-methoxyphenyl)-3-[2-(2-hydroxyethyl)phenyl]urea] | 0.28 |
| COc1cc(Cl)cc(NC(=O)Nc2ccccc2CCO)c1 [Compound 55, 1-(3-Chloro-5-methoxyphenyl)-3-[2-(2-hydroxyethyl)phenyl]urea] | 0.18 |
| COc1cc(NCCO)cc(NC(=O)Nc2ccccc2CCO)c1 [Compound 57, 1-[3-(2-hydroxyethylamino)-5-methoxyphenyl]-3-[2-(2-hydroxyethyl)phenyl]urea] | 0.16 |

The next lines start with the values.

| IC50 [µM] | SMILES |
| --- | --- |
| 0.14 | O=C(Nc1cccc(SC(F)(F)F)c1)Nc1ccccc1CO [Compound 41, 1-(2-hydroxymethylphenyl)-3-(3-trifluoromethylsulphanylphenyl)urea] |
| 0.13 | COc1cc(NCCN)cc(NC(=O)Nc2ccccc2CCO)c1 [Compound 58] |
| 0.11 | O=C(Nc1cccc(OC(F)(F)F)c1)Nc1cc(F)ccc1CO [Compound 32, 1-(5-fluoro-2-hydroxymethylphenyl)-3-(3-trifluoromethoxyphenyl)urea] |
| 0.1 | O=C(Nc1cc(NCCO)cc(OC(F)(F)F)c1)Nc1ccccc1CO [Compound 38, 1-[3-(2-hydroxyethylamino)-5-trifluoromethoxyphenyl]-3-(2-hydroxymethylphenyl)urea] |
| 0.095 | NCCNc1cc(NC(=O)Nc2ccccc2CO)cc(OC(F)(F)F)c1 [Compound 39, 1-[3-(2-aminoethylamino)-5-trifluoromethoxyphenyl]-3-(2-hydroxymethylphenyl)urea] |
| 0.085 | O=C(Nc1cccc(OC(F)(F)F)c1)Nc1cc(F)cc(F)c1CO [Compound 35, 1-(3,5-Difluoro-2-hydroxymethylphenyl)-3-(3-trifluoromethoxyphenyl)urea] |
| 0.06 | O=C(Nc1cccc(OC(F)(F)F)c1)Nc1cc(Cl)ccc1CO [Compound 33, 1-(5-Chloro-2-hydroxymethylphenyl)-3-(3-trifluoromethoxyphenyl)urea] |
| 0.056 | O=C(Nc1cc(Cl)nc(Cl)c1)Nc1cc(F)ccc1CCO [Compound 14, 1-[5-fluoro-2-(2-hydroxyethyl)phenyl]-3-(2,6-dichloropyridin-4-yl)urea] |
| 0.051 | O=C(Nc1cccc(OC(F)(F)F)c1)Nc1cc(Br)cc(Br)c1CO [Compound 37, 1-(3,5-dibromo-2-hydroxymethylphenyl)-3-(3-trifluoromethoxyphenyl)urea] |
| 0.036 | O=C(Nc1cccc(OC(F)(F)F)c1)Nc1cc(F)ccc1CCO [Compound 63, 1-[5-fluoro-2-(2-hydroxyethyl)phenyl]-3-(3-trifluoromethoxyphenyl)urea] |
| 0.032 | O=C(Nc1cccc(OC(F)(F)F)c1)Nc1cc(Cl)cc(Cl)c1CO [Compound 36, 1-(3,5-dichloro-2-hydroxymethylphenyl)-3-(3-trifluoromethoxyphenyl)urea] |
| 0.022 | NCCNc1cc(NC(=O)Nc2ccccc2CCO)cc(OC(F)(F)F)c1 [Compound 67] |
| 0.02 | O=C(Nc1cc(Cl)cc(Cl)c1)Nc1cc(Cl)cc(Cl)c1CO [Compound 21, 1-(3,5-Dichloro-2-hydroxymethylphenyl)-3-(3,5-dichlorophenyl)urea] |
| 0.02 | O=C(Nc1cccc(SC(F)(F)F)c1)Nc1cc(Cl)ccc1CO [Compound 43, 1-(5-chloro-2-hydroxymethylphenyl)-3-(3-trifluoromethylsulphanylphenyl)urea] |
| 0.01 | O=C(Nc1cc(Cl)cc(Cl)c1)Nc1cc(Cl)cc(Cl)c1CCO [Compound 49, 1-[3,5-Dichloro-2-(2-hydroxyethyl)phenyl]-3-(3,5-dichlorophenyl)urea] |

— patent EP4121415B1, “INHIBITORS OF CYTOKININ OXIDASE DERIVED FROM 1-[2-(HYDROXYALKYL)PHENYL]-3-YLUREA, USE THEREOF AND PREPARATIONS CONTAINING THESE DERIVATIVES” (Univerzita Palackého v Olomouci, priority 2020, dated 2021)
